Data set [1] deals with Drosophila wild-type larvae. Kind of data set: Antibiotic toxicity test, wild-type larvae fed antibiotic-supplemented diet. The class given is in vivo, Drosophila melanogaster. The conditions noted are these: for first instar death: larvae fed antibiotic-supplemented diet at around 1 mg/ml, n=10,000; for concentration at which antibiotic was highly toxic: wild-type larvae fed increasing amounts in diet. Here is the method: As proof of principle, an embodiment of this system was developed for the fruit fly Drosophila melanogaster. As an initial test of antibiotic toxicity, Drosophila wild-type larvae were separately fed increasing amounts of either G418 or puromycin. Both antibiotics were highly toxic around 1 mg/ml such that when larvae were fed antibiotic-supplemented diet at this concentration, 100% first instar death was observed (n=10,000). Thus, these two antibiotics can be used as selection molecules in this system.

In data set [2] the test system is genetically engineered insects containing both antibiotic resistance markers. In words: Sex selection of flies carrying combined vector (Opie2-tra-neo and Opie2-dsx-pac). Format: in vivo, Drosophila.
Description: The expanded insect population containing both males and females was transferred to a diet supplemented with puromycin.
Data set [3] concerns Opie2-tra-neo expressing flies. In words: Sex selection of Opie2-tra-neo flies on G418 diet. Format: in vivo, Drosophila melanogaster. The conditions noted are these: diet with increasing concentrations of G418; at ~5 mg/ml; n=2,000. An excerpt:
(§1) The possibility of utilizing the endogenous sex determination machinery to promote sex-specific antibiotic resistance-based selection was next tested. Sex-specific introns dsx and tra were incorporated into the coding frames of the antibiotic resistance genes pac and neo, respectively, and two types of flies were generated, one type expressing Opie2-tra-neo and another type expressing Opie2-dsx-pac. The dsx intron can be excised by splicing only in males and the tra intron can be excised by splicing only in females. This precise sex-specific splicing of these two introns is dictated by the sex determination machinery of the fly. […] The Opie2-tra-neo expressing flies were fed diet containing increasing concentrations of G418 resulting in 100% female progeny at ˜5 mg/ml (n=2,000). The Opie2-dsx-pac expressing flies were fed diet containing increasing concentrations of puromycin resulting in 100% male progeny at ˜2 mg/ml (n=500).

The test system of data set [4] is Opie2-dsx-pac expressing flies. Kind of data set: Sex selection of Opie2-dsx-pac flies on puromycin diet. The class given is in vivo, Drosophila melanogaster. The conditions noted are these: diet with increasing concentrations of puromycin; at ~2 mg/ml; n=500.
Description: as §1

Data set [5] concerns flies expressing Opie2-tra-pac. Kind of data set: Sex selection of Opie2-tra-pac flies on puromycin diet. Format: in vivo, Drosophila melanogaster. The conditions noted are these: larvae fed diet with increasing concentrations of puromycin; n=500. An excerpt:
Thus, the sex specific introns can be interchangeably used with either antibiotic resistance genes to select for either males or females.

Data set [6] has as its system transgenic flies expressing the pac gene. In words: Antibiotic diet fed to transgenic flies expressing pac gene. The class given is in vivo, Drosophila. The conditions noted are these: diet with increasing concentrations of puromycin; pac under Opie2 promoter. An excerpt:
To determine if the toxicity of puromycin and neomycin could be negated, antibiotic resistance genes pac and neo were used. Two types of transgenic flies were generated each expressing one type of antibiotic resistance gene under the control of the promoter Opie2. One type of transgenic fly expressed the pac gene and the other expressed the neo gene. Transgenic flies were fed a diet supplemented with increasing concentrations of either puromycin or G418, respectively. […] Additionally, these transgenic flies were quite healthy with high fitness. Thus, the pac and neo genes could be used to counter the toxicity of […], respectively.

The next data set relates to insects. To be noted: tetracycline in diet; Zeh et al., 2012; cited from earlier work.

For `CN[C@@H]1[C@@H](O)[C@@H](O[C@@H]2[C@@H](O)[C@H](O[C@H]3O[C@H]([C@@H](C)O)[C@@H](O)[C@H](O)[C@H]3N)[C@@H](N)C[C@H]2N)OC[C@]1(C)O` [G418], in data set [1], the first instar death worked out at 100% and the “concentration at which antibiotic was highly toxic” value is on record as “around 1 mg/ml”. For the same compound, the females selected in data set [2] (diet supplemented with increasing concentrations of G418 (FIG. 3)) came to 100%. Also, the female progeny in data set [3] is 100%.

For the compound `COc1ccc(C[C@H](N)C(=O)N[C@H]2[C@@H](O)[C@H](n3cnc4c(N(C)C)ncnc43)O[C@@H]2CO)cc1` [puromycin], in data set [1], the first instar death is given as 100% and the “concentration at which antibiotic was highly toxic” value was “around 1 mg/ml”. The compound also registered a male progeny in data set [4] of 100%. For the same compound, in data set [2] (diet supplemented with increasing concentrations of puromycin (FIG. 2)), the males selected is on record as 100%. In data set [2] (puromycin-supplemented diet, first instar larval stage), the “sex-selective killing of progeny” value was “female progeny were selectively killed”. The same compound showed a female progeny in data set [5] of 100%. The “toxicity of antibiotic in resistance-gene flies” value in data set [6] was “negate the toxicity”.

Turning to `CN(C)[C@@H]1C(O)=C(C(N)=O)C(=O)[C@@]2(O)C(O)=C3C(=O)c4c(O)cccc4[C@@](C)(O)[C@H]3C[C@@H]12` [tetracycline], the “side effect on insects (fitness)” value in the data set on insects is listed as “large fitness cost”.
